Legend:
[1] = test system: microglia; assay: Microglial depletion in SOD1G93A mice with b.i.d. dosing (RD-2019-00111); format: in vivo, SOD1G93A mouse; conditions: 5 consecutive days
Description: (§1) Dosing was examined in the SOD1G93A mouse model of ALS, the most commonly used rodent ALS model (RD-2019-00111). Twice daily dosing (b.i.d.) was examined after 5 consecutive dosing days. Microglia were depleted in the cortex by approximately 25% and 75% following treatment with 50 mg/kg and 80 mg/kg BLZ945. BLZ945 dosed b.i.d. at 10 mg/kg was not effective (FIG. 10 A).
(§2) FIG. 10: BLZ945-mediated microglial depletion in the cortex, as assessed by Iba1/Aif-1 immunohistological staining (A) or in spinal cord by qPCR analysis (B) Values are group means±SD (n=3). (C and D) Exposure of BLZ945 in blood and CNS brain and spinal cord 3 hours after the final dose of the study.

[2] = test system: CSF-1R; assay: Mouse CSF-1 levels in plasma as biomarker for CSF-1R inhibition (MC38 model); format: in vivo; conditions: BLZ945 4 days on/3 days off, vs vehicle
Description: In order to measure increase of CSF1 in the plasma as a biomarker for CSF-1R inhibition blood sampling was performed at baseline and 6 hours later on indicated days (FIG. 4).
Mouse CSF-1 levels in plasma. A. Changes in CSF-1 levels over time in the different treatment groups. B. Statistical analysis of CSF-1 levels in vehicle vs. BLZ945 4 days on/3 days off and in vehicle vs. BLZ945 4 days on/3 days off in combination with anti-PD-1. Statistical significance was calculated using a two-tailed, unpaired, non-parametric Mann-Whitney Test was performed to compare treatment to control groups.

[3] = Blood, brain and spinal cord exposure in SOD1G93A mice, b.i.d. dosing (RD-2019-00111); format: in vivo; conditions: mouse, brain and spinal cord relative to blood, three hours after the final dose, read-out: brain and spinal cord drug exposure relative to blood
Description: as §1, §2

[4] = Phase I/II first-in-human study CBLZ945X2101: adverse events; format: in vivo
From the text: The purpose of this first-in-human (FIH) study of BLZ945 given as a single agent or in combination with spartalizumab is to characterize the safety, tolerability, pharmacokinetics (PK), pharmacodynamics, and anti-tumor activity of BLZ945, administered orally, as a single agent or in combination with spartalizumab, administered intravenously (i.v.) in adult patients with advanced solid tumors.
This study is a FIH, open-label, multi-center, phase I/II, study which consists of a phase I dose escalation part of BLZ945 as single agent (including a separate Japanese BLZ945 single agent dose escalation arm) and in combination with spartalizumab. Alternative dosing regimens of BLZ945 may be evaluated. BLZ945 is being administered orally, and spartalizumab is being administered i.v. every four weeks until patient experiences unacceptable toxicity, progressive disease and/or treatment is discontinued at the discretion of the Investigator or the patient.
BLZ945 dosing is being evaluated on the following schedules, 7 days on/7 days off (i.e., administer BLZ945 every day for 7 days and suspend for 7 days), once weekly (Q1W), and 4 days on/10 days off (i.e., administer BLZ945 every day for 4 days and suspend for 10 days). For each of these schedules, once per day (OD) or twice per day (BID) dosing may be evaluated. For once daily administration, patients should take their dose at approximately the same time in the morning. For the twice a day dosing, the first dose should be taken in the morning and the second dose should be taken approximately 10 to 12 hours after the morning dose.
All patients treated with either BLZ945 single agent or in combination with spartalizumab will begin study treatment on Cycle 1 Day 1. Each cycle will consist of 28 days. […]
As mentioned above, nausea, vomiting have been commonly observed to occur with single-agent administration of BLZ945 in the first-in-human trial (CBLZ945X2101). […] An additional cohort to evaluate 7 days on may also be evaluated.

[5] = test system: tumor associated macrophages (TAM) and Tregs; assay: Tumor infiltrating macrophages and Tregs by flow cytometry (MC38 model); format: in vivo, mouse; conditions: BLZ945 4 days on/3 days off, single agent and with anti-PD-1
Description: In order to access the dynamics of the tumor associated immune cells a repeat study using only the 4 days on/3 days off schedule as a single agent and in combination with anti-PD-1 was performed.
FIG. 5 Analysis of tumor infiltrating macrophages (FIG. 5A) and Tregs (FIG. 5B) upon treatment with BLZ945 in a 4 days on/3 days off schedule on day 10 (A) and day 14 (B) and in combination with anti-PD-1 by flow cytometry. Statistical significance was calculated using a two-tailed, unpaired, non-parametric Mann-Whitney Test was performed to compare treatment to control groups.

CNC(=O)c1cc(Oc2ccc3nc(N[C@@H]4CCCC[C@H]4O)sc3c2)ccn1 [BLZ945, 4-((2-(((1R,2R)-2-hydroxycyclohexyl)amino)benzo[d]thiazol-6-yl)oxy)-N-methylpicolinamide]
microglia depletion in the cortex ([1]; 10 mg/kg b.i.d.): not effective
reduction of microglial markers in spinal cord (qPCR) ([1]; 10 mg/kg b.i.d.): small but non-significant effect
microglia depleted in spinal cord (qPCR of microglial markers) ([1]; 50 mg/kg b.i.d.): approximately 55%
microglia depleted in the cortex ([1]; 50 mg/kg b.i.d.): approximately 25%
microglia depleted in spinal cord (qPCR of microglial markers) ([1]; 80 mg/kg b.i.d.): ~85%
microglia depleted in the cortex ([1]; 80 mg/kg b.i.d.): ~75%
CSF-1 plasma levels [2]: statistically significant increase
Kp at 3 h [3]: ~0.3
most frequently reported AEs (>10%) suspected to be related to treatment ([4]; in vivo): aspartate aminotransferase (AST) increased, nausea, vomiting, alanine aminotransferase (ALT) increased, fatigue, amylase increased, blood creatine phosphokinase increased and decreased appetite
serum enzyme elevation ([4]; in vivo): Asymptomatic serum enzyme elevation including AST, ALT, CK and alkaline phosphatase elevations
suspected SAEs (grade and kind) ([4]; single agent arm, combination arm): Grade 3 AST increased, Grade 3 asthenia and Grade 4 sudden death
TAM in tumor ([5]; after 10 and 14 days of treatment): significant decrease
Tregs in tumor ([5]; day 10 after treatment start): transient decrease
